Tests used:
Type in all cases: in vivo
ducksalad [1] = assay: Test Example 2: herbicidal effects during the vegetation period under submerged conditions; conditions: treatment during the vegetation period under submerged conditions; dose 2.52 g/a
Method in brief: (§1)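 Barnyardgrass, bulrush and ducksalad were co-sown in alluvial soil flooded to 4 cm and grown in a greenhouse at 25 to 30° C. At the 1- or 2-leaf stage, water-diluted emulsifiable concentrates went onto the water surface at set doses (g/a). Herbicidal effect was scored three weeks later on a graded scale.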

barnyardgrass [2] = assay: as above; conditions: treatment during the vegetation period under submerged conditions; dose 2.52 g/a
Method in brief: as §1

bulrush [3] = assay: as above; conditions: treatment during the vegetation period under submerged conditions; dose 2.52 g/a
Method in brief: as §1

ducksalad [4] = assay: Test Example 1: herbicidal effects in preemergence treatment under submerged conditions; conditions: dose 2.52 g/a
Method in brief: (§2)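 Scoring 0 (<5% mortality) to 5 (≥90%) was done three weeks after preemergence application to the water surface of submerged (4 cm) alluvial soil, doses given as g per are. Weeds were seeded and 2.5-leaf rice transplanted on the treatment day; greenhouse at 25–30 °C.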

barnyardgrass [5] = assay: as above; conditions: dose 2.52 g/a
Method in brief: as §2

bulrush [6] = assay: as above; conditions: dose 2.52 g/a
Method in brief: as §2

Italian ryegrass [7] = assay: Test Example 3: herbicidal effects in soil treatment; conditions: dose 3.2 g/a
Method in brief: (§3)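 Seeds were sown in sterilized diluvial soil and covered with about 1.5 cm of soil. Compounds, formulated as emulsifiable concentrates and diluted with water, were sprayed evenly over the soil surface at set doses in g/a. Herbicidal effect was scored on a rating scale three weeks later.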

velvetleaf [8] = assay: as above; conditions: dose 3.2 g/a
Method in brief: as §3

posumbu knotweed [9] = assay: as above; conditions: dose 3.2 g/a
Method in brief: as §3

common chickweed [10] = assay: as above; conditions: dose 3.2 g/a
Method in brief: as §3

barnyardgrass [11] = assay: as above; conditions: dose 3.2 g/a
Method in brief: as §3

water foxtail [12] = assay: as above; conditions: dose 3.2 g/a
Method in brief: as §3

common ragweed [13] = assay: as above; conditions: dose 3.2 g/a
Method in brief: as §3

giant foxtail [14] = assay: as above; conditions: dose 3.2 g/a
Method in brief: as §3

common lambsquater [15] = assay: as above; conditions: dose 3.2 g/a
Method in brief: as §3

redroot pigweed [16] = assay: as above; conditions: dose 3.2 g/a
Method in brief: as §3

large crabgrass [17] = assay: as above; conditions: dose 3.2 g/a
Method in brief: as §3

wild oat [18] = assay: as above; conditions: dose 3.2 g/a
Method in brief: as §3

transplanted rice = assay: Test Example 1: preemergence treatment under submerged conditions, effect on crop; conditions: dose 2.52 g/a
Method in brief: as §2

Italian ryegrass [19] = assay: Test Example 4: herbicidal effect in foliage treatment; conditions: dose 3.2 g/a, three weeks after application
Method in brief: (§4)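 A uniform foliar spray of emulsifiable concentrate, diluted with water to give the stated g/a dose, was applied to plants raised for 14 days from seed in sterilized diluvial soil at 25 to 30° C. Herbicidal effects were scored three weeks later.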

velvetleaf [20] = assay: as above; conditions: dose 3.2 g/a, three weeks after application
Method in brief: as §4

posumbu knotweed [21] = assay: as above; conditions: dose 3.2 g/a, three weeks after application
Method in brief: as §4

common chickweed [22] = assay: as above; conditions: dose 3.2 g/a, three weeks after application
Method in brief: as §4

barnyardgrass [23] = assay: as above; conditions: dose 3.2 g/a, three weeks after application
Method in brief: as §4

water foxtail [24] = assay: as above; conditions: dose 3.2 g/a, three weeks after application
Method in brief: as §4

common ragweed [25] = assay: as above; conditions: dose 3.2 g/a, three weeks after application
Method in brief: as §4

giant foxtail [26] = assay: as above; conditions: dose 3.2 g/a, three weeks after application
Method in brief: as §4

beadstraw = assay: as above; conditions: dose 3.2 g/a, three weeks after application
Method in brief: as §4

common lambsquater [27] = assay: as above; conditions: dose 3.2 g/a, three weeks after application
Method in brief: as §4

redroot pigweed [28] = assay: as above; conditions: dose 3.2 g/a, three weeks after application
Method in brief: as §4

large crabgrass [29] = assay: as above; conditions: dose 3.2 g/a, three weeks after application
Method in brief: as §4

wild oat [30] = assay: as above; conditions: dose 3.2 g/a, three weeks after application
Method in brief: as §4

Compound	C: ducksalad, herbicidal effect (evaluation scale 0-5) (ducksalad [1])	A: barnyardgrass, herbicidal effect (evaluation scale 0-5) (barnyardgrass [2])	B: bulrush, herbicidal effect (evaluation scale 0-5) (bulrush [3])	C: ducksalad, herbicidal effect (evaluation scale 0-5) (ducksalad [4])	A: barnyardgrass, herbicidal effect (evaluation scale 0-5) (barnyardgrass [5])	B: bulrush, herbicidal effect (evaluation scale 0-5) (bulrush [6])	H: Italian ryegrass, herbicidal effect (evaluation scale 0-5) (Italian ryegrass [7])	I: velvetleaf, herbicidal effect (evaluation scale 0-5) (velvetleaf [8])	M: posumbu knotweed, herbicidal effect (evaluation scale 0-5) (posumbu knotweed [9])	N: common chickweed, herbicidal effect (evaluation scale 0-5) (common chickweed [10])	A: barnyardgrass, herbicidal effect (evaluation scale 0-5) (barnyardgrass [11])	G: water foxtail, herbicidal effect (evaluation scale 0-5) (water foxtail [12])	J: common ragweed, herbicidal effect (evaluation scale 0-5) (common ragweed [13])	E: giant foxtail, herbicidal effect (evaluation scale 0-5) (giant foxtail [14])	L: common lambsquater, herbicidal effect (evaluation scale 0-5) (common lambsquater [15])	K: redroot pigweed, herbicidal effect (evaluation scale 0-5) (redroot pigweed [16])	D: large crabgrass, herbicidal effect (evaluation scale 0-5) (large crabgrass [17])	F: wild oat, herbicidal effect (evaluation scale 0-5) (wild oat [18])	a: transplanted rice, effect on crop (evaluation scale 0-5) (transplanted rice)	H: Italian ryegrass, herbicidal effect (Italian ryegrass [19])	other results
O=C1CC(c2ccccc2)OCN1Cc1ccccc1NS(=O)(=O)C(F)(F)F (stereo not shown) [II-9]	5 (mortality of 90% or above (nearly complete death))	5 (mortality of 90% or above (nearly complete death))	5 (mortality of 90% or above (nearly complete death))	5 (mortality of 90% or above (nearly complete death))	5 (mortality of 90% or above (nearly complete death))	5 (mortality of 90% or above (nearly complete death))	4 (mortality of at least 70% and less than 90%)	5 (mortality of 90% or above (nearly complete death))	5 (mortality of 90% or above (nearly complete death))	3 (mortality of at least 40% and less than 70%)	5 (mortality of 90% or above (nearly complete death))	5 (mortality of 90% or above (nearly complete death))	0 (mortality of less than 5% (almost ineffective))	4 (mortality of at least 70% and less than 90%)	0 (mortality of less than 5% (almost ineffective))	0 (mortality of less than 5% (almost ineffective))	5 (mortality of 90% or above (nearly complete death))	3 (mortality of at least 40% and less than 70%)	0 (mortality of less than 5% (almost ineffective))	1 (mortality of at least 5% and less than 20%)	I: velvetleaf, herbicidal effect (velvetleaf [20]): 1 (mortality of at least 5% and less than 20%); M: posumbu knotweed, herbicidal effect (posumbu knotweed [21]): 5 (mortality of 90% or above (nearly complete death)); N: common chickweed, herbicidal effect (common chickweed [22]): 3 (mortality of at least 40% and less than 70%); A: barnyardgrass, herbicidal effect (barnyardgrass [23]): 5 (mortality of 90% or above (nearly complete death)); G: water foxtail, herbicidal effect (water foxtail [24]): 4 (mortality of at least 70% and less than 90%); J: common ragweed, herbicidal effect (common ragweed [25]): 3 (mortality of at least 40% and less than 70%); E: giant foxtail, herbicidal effect (giant foxtail [26]): 4 (mortality of at least 70% and less than 90%); O: beadstraw, herbicidal effect (beadstraw): 4 (mortality of at least 70% and less than 90%); L: common lambsquater, herbicidal effect (common lambsquater [27]): 0 (mortality of less than 5% (almost ineffective)); K: redroot pigweed, herbicidal effect (redroot pigweed [28]): 0 (mortality of less than 5% (almost ineffective)); D: large crabgrass, herbicidal effect (large crabgrass [29]): 0 (mortality of less than 5% (almost ineffective)); F: wild oat, herbicidal effect (wild oat [30]): 0 (mortality of less than 5% (almost ineffective))
CCCOC(=O)N(c1ccccc1CN1COC(c2ccccc2)CC1=O)S(=O)(=O)C(F)(F)F (stereo not shown) [II-11]	5 (mortality of 90% or above (nearly complete death))	5 (mortality of 90% or above (nearly complete death))	5 (mortality of 90% or above (nearly complete death))	5 (mortality of 90% or above (nearly complete death))	5 (mortality of 90% or above (nearly complete death))	5 (mortality of 90% or above (nearly complete death))	3 (mortality of at least 40% and less than 70%)	5 (mortality of 90% or above (nearly complete death))	0 (mortality of less than 5% (almost ineffective))	3 (mortality of at least 40% and less than 70%)	3 (mortality of at least 40% and less than 70%)	4 (mortality of at least 70% and less than 90%)	2 (mortality of at least 20% and less than 40%)	4 (mortality of at least 70% and less than 90%)	0 (mortality of less than 5% (almost ineffective))	0 (mortality of less than 5% (almost ineffective))	3 (mortality of at least 40% and less than 70%)	0 (mortality of less than 5% (almost ineffective))	0 (mortality of less than 5% (almost ineffective))	1 (mortality of at least 5% and less than 20%)	I: velvetleaf, herbicidal effect (velvetleaf [20]): 4 (mortality of at least 70% and less than 90%); M: posumbu knotweed, herbicidal effect (posumbu knotweed [21]): 3 (mortality of at least 40% and less than 70%); N: common chickweed, herbicidal effect (common chickweed [22]): 4 (mortality of at least 70% and less than 90%); A: barnyardgrass, herbicidal effect (barnyardgrass [23]): 4 (mortality of at least 70% and less than 90%); G: water foxtail, herbicidal effect (water foxtail [24]): 3 (mortality of at least 40% and less than 70%); J: common ragweed, herbicidal effect (common ragweed [25]): 4 (mortality of at least 70% and less than 90%); E: giant foxtail, herbicidal effect (giant foxtail [26]): 2 (mortality of at least 20% and less than 40%); O: beadstraw, herbicidal effect (beadstraw): 4 (mortality of at least 70% and less than 90%); L: common lambsquater, herbicidal effect (common lambsquater [27]): 2 (mortality of at least 20% and less than 40%); K: redroot pigweed, herbicidal effect (redroot pigweed [28]): 0 (mortality of less than 5% (almost ineffective)); D: large crabgrass, herbicidal effect (large crabgrass [29]): 2 (mortality of at least 20% and less than 40%); F: wild oat, herbicidal effect (wild oat [30]): 0 (mortality of less than 5% (almost ineffective))

From patent US20120029187A1, “HALOALKYLSULFONANILIDE DERIVATIVE” (Nissan Chemical Industries, Ltd., priority 2009, published 2012)
